Measurements taken from patent US20080287375A1, “Selective Glycosidase Inhibitors, Methods of Making Inhibitors, and Uses Thereof” (SIMON FRASER UNIVERSITY, priority 2005, published 2008).

Tests used:
[1] = target: human placental β-hexosaminidase; test: Inhibition of β-hexosaminidase, substrate MU-GlcNAc (5), Dixon plots; conditions: read-out: β-Hexosaminidase KI; Table 2; substrate 5 at 0.64 mM, pH 4.25, Dixon plots
[2] = tested on: O-GlcNAc modified proteins in rat tissues; test: Clearance rate: time course of tissue O-GlcNAc levels in rats after tail vein injection; type: in vivo; conditions: 50 mg kg^−1 tail vein
Protocol: To obtain information for how rapid the inhibitor is cleared from tissues, five 10-week old Sprague-Dawley rats were given a tail vein injection of the inhibitor (50 mg kg^−1). The animals were sacrificed sequentially 3, 7, 24, 27, and 32 hours following the injection. Two additional rats were used as controls. One rat was sacrificed immediately before the others received their injections in order to obtain information about the normal levels of O-GlcNAc modified proteins. Also, one rat was injected with sterilized PBS (pH 7.4) along with the other rats and sacrificed at the end of the experiment (32 hours). Tissue collection, homogenization, and western blot analyses were done in the same matter as described above.

Ki [1]: 340 µM
time within which the inhibitor is cleared from the tissues and O-GlcNAc levels return to normal ([2]; brain and muscle): 24 to 32 h
Structure (SMILES): CCCC1=N[C@@H]2[C@@H](O)[C@H](O)[C@@H](CO)O[C@@H]2S1 [Compound 9c, 1,2-dideoxy-2′-propyl-α-D-glucopyranoso-[2,1-d]-2′-thiazoline]
cellular levels of O-GlcNAc modified proteins in brain, 24 hours after injection [2]: dropped
cellular levels of O-GlcNAc modified proteins in brain, seven hours after injection [2]: remained high
cellular levels of O-GlcNAc modified proteins in brain, three hours after injection [2]: marked increases
time after which O-GlcNAc levels return to normal levels ([2]; brain): about 32 hours
time to elevate O-GlcNAc levels in tissues ([2]; brain and muscle): < 3 h
